In patent publication US20240002391A1, “4-ALKOXYPYRROLO[2,1-F][1,2,4]TRIAZINES AND PREPARATION AND USES THEREOF” (BioSplice Therapeutics, Inc., priority 2022, published 2024):

How the values were obtained:
[1] = biological target: recombinant DYRK1A kinase (Homo sapiens (Human), UniProt Q13627); assay: DYRK1A kinase assay (Ser/Thr 18 peptide Z-lyte FRET); type: biochemical; settings: DYRK1A kinase activity, Z-lyte Ser/Thr 18 peptide, 15 μM ATP; method text calls the value IC50; read-out: EC50 (the source's name)
Outline: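 Compounds were tested as 11-point, threefold dilution series starting at 10 μM against recombinant enzyme in a 1 h room-temperature reaction with 15 μM ATP and 4 μM peptide substrate. Phosphorylation is read by protease-coupled FRET, and IC50 values come from curve fitting.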

[2] = system: Tau phosphorylation at Thr212 (pThr212) in HEK293T cells transfected with DYRK1A and MAPT; assay: Tau phosphorylation phosphoTau (Thr212) AlphaLISA assay in HEK293T cells transfected with DYRK1A and MAPT; type: cell-based; settings: HEK-293T, HEK293T cells transiently transfected with human DYRK1A and MAPT, compound treatment 18-24 hours, read-out: pTau (Thr212) EC50
Description: Representative compounds were screened using the assay procedure for tau phosphorylation activity described below.
HEK293T cells (ATCC, CRL3216) cultured in DMEM (Thermo Fisher Scientific, 10566024) supplemented with 10% FBS (Coming, 35-011—CV) and Penicillin/Streptomycin (Thermo Fisher Scientific, 15140163) were seeded in a 75 cm^2 flask at 8.1×10^6 cells/flask. The HEK293T cells were then transiently transfected with 5 μg DYRK1A (NM_001396) human untagged clone (OriGene, SC314641) and 2.5 μg MAPT (441 a.a. Tau gene) (NM_005910) human untagged clone (OriGene, TP313312) using Lipofectamine 3000 (Thermo Fisher Scientific, L30000015) and incubated for 20-30 hours in a humidified incubator at 37° C. and 5% CO^2. Post-incubation, HEK293T cells transfected with the DYRK1A and MAPT expression vectors were harvested and seeded in BioCoat poly-D lysine coated 96-well plates (Coming, 354461) at 3×10^4 cells/well.
The above synthesized compounds were screened using the cell assay procedure to assess decreased Tau phosphorylation at Thr212 (pThr212) described below.
Each compound was dissolved in DMSO (Sigma-Aldrich, D8418-100 mL) as a 10 mM stock. 10 mM stocks were serially diluted 1:3, 10-point dose-response curve and added to the cells with a final concentration ranging from 20 μM to 1.1 nM. Cells were treated with compounds in duplicate and incubated for 18-24 hours in a humidified incubator at 37° C. and 5% CO^2.
Following the overnight compound treatment, cells were lysed with 1X Alpha Surefire Ultra Lysis Buffer (Perkin Elmer, ALSU-LB-100ML) complemented with 1X Halt Phosphatase Inhibitor Cocktail (Thermo Fisher Scientific, 78427) and 1X Halt Protease Inhibitor Cocktail (Thermo Fisher Scientific, 78438). Lysates were spun down at 12,000 g for 10 min to remove any cellular debris and 5 μL of lysates were dispensed into a 384-well Opti-Plate (Perkin Elmer, 6007290) for the measurement of Tau phosphorylation in the phosphoTau (Thr212) AlphaLISA assay. Donor antibody, biotinylated HT7Tau (Thermo Fisher Scientific, MN1000B), and acceptor antibody, pThr212Tau (Thermo Fisher Scientific, 44740G) were both added to the cell lysates at a final concentration of 3 nM and incubated for 1 hour at room temperature. Following incubation of the lysates with the donor and acceptor antibodies, anti-rabbit IgG(Fc specific) AlphaLISA acceptor beads (Perkin Elmer, AL104C) were added at a 10 ug/mL final concentration and incubated for 1 hour at room temperature protected from light. Lastly, AlphaScreen streptavidin donor beads (PerkinElmer, 6760002) were added at 40 ug/mL final concentration and incubated for 1 hour at room temperature protected from light. Plates were read at […] on the EnVision Multilabel Plate Reader (Perkin Elmer). The phospho-Tau (Thr212) AlphaLISA signal was used to plot, draw the curve fitting, and determine each compound's EC50 in Prism (GraphPad).

Row | Molecule | IC50 [1] [nM] | EC50 [2] [nM]
1 | COc1nc(N[C@H]2C[C@](C)(O)C2)nn2ccc(-c3ccc4nccn4c3)c12 [Compound 44, trans-3-((5-(Imidazo[1,2-a]pyridin-6-yl)-4-methoxypyrrolo[2,1-f][1,2,4]triazin-2-yl)amino)-1-methylcyclobutan-1-ol] | – | 48.2
2 | COc1nc(N[C@H]2CC[C@H](NC(C)=O)CC2)nn2ccc(-c3ccc4nccn4c3)c12 [Compound 54, N-(trans-4-((5-(Imidazo[1,2-a]pyridin-6-yl)-4-methoxypyrrolo[2,1-f][1,2,4]triazin-2-yl)amino)cyclohexyl)acetamide] | 1.2 | 25.7
3 | COc1nc(N[C@H]2CC[C@](C)(O)CC2)nn2ccc(-c3ccc4nccn4c3)c12 [Compound 56, trans-4-((5-(Imidazo[1,2-a]pyridin-6-yl)-4-methoxypyrrolo[2,1-f][1,2,4]triazin-2-yl)amino)-1-methylcyclohexan-1-ol] | 1.3 | 35.7
4 | COc1nc(N[C@H]2CC[C@](C)(O)CC2)nn2ccc(-c3ccc4ncnn4c3)c12 [Compound 194, trans-4-((5-([1,2,4]Triazolo[1,5-a]pyridin-6-yl)-4-methoxypyrrolo[2,1-f][1,2,4]triazin-2-yl)amino)-1-methylcyclohexan-1-ol] | 2.2 | 107
5 | COc1nc(N[C@H]2CC[C@](C)(O)CC2)nn2ccc(-c3cnc4nccn4c3)c12 [Compound 257, trans-4-((5-(Imidazo[1,2-a]pyrimidin-6-yl)-4-methoxypyrrolo[2,1-f][1,2,4]triazin-2-yl)amino)-1-methylcyclohexan-1-ol] | 0.4 | 15.1
6 | COc1nc(NC2CC3(COC3)C2)nn2ccc(-c3cnc4nccn4c3)c12 [Compound 272, 5-(Imidazo[1,2-a]pyrimidin-6-yl)-4-methoxy-N-(2-oxaspiro[3.3]heptan-6-yl)pyrrolo[2,1-f][1,2,4]triazin-2-amine] | 1.3 | 13.4
7 | CCC(=O)N1CC[C@H](Nc2nc(OC)c3c(-c4ccc5nnn(CCF)c5c4)ccn3n2)[C@H](F)C1 [Compound 1143, 1-((3R,4S)-3-Fluoro-4-((5-(1-(2-fluoroethyl)-1H-benzo[d][1,2,3]triazol-6-yl)-4-methoxypyrrolo[2,1-f][1,2,4]triazin-2-yl)amino)piperidin-1-yl)propan-1-one] | 1.8 | –
8 | COc1nc(NCC2(C)COC2)nn2ccc(-c3ccc4nnn(CC(F)F)c4c3)c12 [Compound 1144, 5-(1-(2,2-Difluoroethyl)-1H-benzo[d][1,2,3]triazol-6-yl)-4-methoxy-N-((3-methyloxetan-3-yl)methyl)pyrrolo[2,1-f][1,2,4]triazin-2-amine] | 2 | –
9 | COc1nc(NC2CC3CCC(C2)O3)nn2ccc(-c3cnc4nccn4c3)c12 (centres unmarked) [Compound 1150, N-(8-Oxabicyclo[3.2.1]octan-3-yl)-5-(imidazo[1,2-a]pyrimidin-6-yl)-4-methoxypyrrolo[2,1-f][1,2,4]triazin-2-amine] | 4.4 | –
10 | N-(cis-4-((4-Methoxy-5-(quinolin-6-yl)pyrrolo[2,1-f][1,2,4]triazin-2-yl) amino)cyclohexyl)acetamide [Compound 1044] | 3.2 | –

The next lines start with results.

Row | IC50 [1] [nM] | Molecule | EC50 [2] [nM]
11 | 22.4 | COc1nc(N[C@H]2CC[C@@](C)(O)CC2)nn2ccc(-c3cnc4nc(C)n(CC(F)F)c4c3)c12 [Compound 1, cis-4-((5-(1-(2,2-Difluoroethyl)-2-methyl-1H-imidazo[4,5-b]pyridin-6-yl)-4-methoxypyrrolo[2,1-f][1,2,4]triazin-2-yl)amino)-1-methylcyclohexan-1-ol] | 21.6
12 | 1.5 | COc1nc(N[C@H]2CC[C@](C)(O)CC2)nn2ccc(-c3ccc4nnn(C)c4c3)c12 [Compound 3, trans-4-((4-Methoxy-5-(1-methyl-1H-benzo[d][1,2,3]triazol-6-yl)pyrrolo[2,1-f][1,2,4]triazin-2-yl)amino)-1-methylcyclohexan-1-ol] | 197
13 | 3.4 | COc1nc(N[C@H]2CC[C@](C)(O)CC2)nn2ccc(-c3ccn4nccc4c3)c12 [Compound 20, trans-4-((4-Methoxy-5-(pyrazolo[1,5-a]pyridin-5-yl)pyrrolo[2,1-f][1,2,4]triazin-2-yl)amino)-1-methylcyclohexan-1-ol] | 107
14 | 0.9 | COc1nc(N[C@H]2C[C@](C)(NC(C)=O)C2)nn2ccc(-c3ccc4ncnn4c3)c12 [Compound 192, N-(trans-3-((5-([1,2,4]Triazolo[1,5-a]pyridin-6-yl)-4-methoxypyrrolo[2,1-f][1,2,4]triazin-2-yl)amino)-1-methylcyclobutyl)acetamide] | 18.1
15 | 3.8 | COc1nc(N[C@H]2C[C@](C)(O)C2)nn2ccc(-c3ccc4nnn(C)c4c3)c12 [Compound 200, trans-3-((4-Methoxy-5-(1-methyl-1H-benzo[d][1,2,3]triazol-6-yl)pyrrolo[2,1-f][1,2,4]triazin-2-yl)amino)-1-methylcyclobutan-1-ol] | 130
16 | 1.5 | CNC(=O)[C@]1(C)C[C@@H](Nc2nc(OC)c3c(-c4ccc5nnn(C)c5c4)ccn3n2)C1 [Compound 210, trans-3-((4-Methoxy-5-(1-methyl-1H-benzo[d][1,2,3]triazol-6-yl)pyrrolo[2,1-f][1,2,4]triazin-2-yl)amino)-N,1-dimethylcyclobutane-1-carboxamide] | 19.7
17 | 0.8 | CC[C@]1(O)CC[C@H](Nc2nc(OC)c3c(-c4cnc5nccn5c4)ccn3n2)CC1 [Compound 258, trans-1-Ethyl-4-((5-(imidazo[1,2-a]pyrimidin-6-yl)-4-methoxypyrrolo[2,1-f][1,2,4]triazin-2-yl)amino)cyclohexan-1-ol] | 8.9
18 | 2.3 | COc1nc(N[C@H]2CCN(C3COC3)C[C@H]2F)nn2ccc(-c3cc(F)c4nc(C)n(C(C)C)c4c3)c12 [Compound 1142, N-((3R,4S)-3-Fluoro-1-(oxetan-3-yl)piperidin-4-yl)-5-(4-fluoro-1-isopropyl-2-methyl-1H-benzo[d]imidazol-6-yl)-4-methoxypyrrolo[2,1-f][1,2,4]triazin-2-amine] | –
19 | 1.4 | COc1nc(N[C@H]2CCN(S(C)(=O)=O)C[C@H]2F)nn2ccc(-c3ccc4nnn(CC(F)F)c4c3)c12 [Compound 1145, 5-(1-(2,2-Difluoroethyl)-1H-benzo[d][1,2,3]triazol-6-yl)-N-((3R,4S)-3-fluoro-1-(methylsulfonyl)piperidin-4-yl)-4-methoxypyrrolo[2,1-f][1,2,4]triazin-2-amine] | –
20 | 2 | COc1nc(NCC(C)(C)C#N)nn2ccc(-c3cnc4nccn4c3)c12 [Compound 1146, 3-((5-(Imidazo[1,2-a]pyrimidin-6-yl)-4-methoxypyrrolo[2,1-f][1,2,4]triazin-2-yl)amino)-2,2-dimethylpropanenitrile] | –
21 | 2.7 | COc1nc(N[C@H](C)C2CCOCC2)nn2ccc(-c3cnc4nccn4c3)c12 [Compound 1147, (R)-5-(Imidazo[1,2-a]pyrimidin-6-yl)-4-methoxy-N-(1-(tetrahydro-2H-pyran-4-yl)ethyl)pyrrolo[2,1-f][1,2,4]triazin-2-amine] | –
22 | 0.6 | COc1nc(NC2CCOC(C)(C)C2)nn2ccc(-c3cnc4nccn4c3)c12 (centres unmarked) [Compound 1148, N-(2,2-Dimethyltetrahydro-2H-pyran-4-yl)-5-(imidazo[1,2-a]pyrimidin-6-yl)-4-methoxypyrrolo[2,1-f][1,2,4]triazin-2-amine] | –
23 | 4.5 | COc1nc(N[C@@H]2CCOC[C@H]2F)nn2ccc(-c3cnc4nccn4c3)c12 [Compound 1149, N-((3S,4R)-3-Fluorotetrahydro-2H-pyran-4-yl)-5-(imidazo[1,2-a]pyrimidin-6-yl)-4-methoxypyrrolo[2,1-f][1,2,4]triazin-2-amine] | –
